From patent publication US20200123190A1 come the findings set out here.

The test system of this test is human pancreatic cancer cells (MIA-Paca-2). As to the kind of experiment: Cell growth inhibitory effect, alamarBlue. The format is cell-based. The note with it: MIA-Paca-2, cultured for 3 days. Here is the method:
Each of the test compounds (DMSO solutions in various concentrations) was added to 100 μL of a culture solution containing human pancreatic cancer cells (MIA-Paca-2) (cell count: about 5×10^3 cells) and cultured for 3 days. The cell growth inhibitory effect was investigated by fluorescence color development using alamarBlue reagent. Each of their IC50 values was determined.
Background: The colour change of resazurin is a common sign of viable cells or microbes.

In general, IC50 refers to the concentration at which inhibition is half-maximal. A low value points to greater potency in that assay. Compound `Nc1ccn([C@@H]2O[C@H](CO)[C@@H](O)C2(F)F)c(=O)n1` [Gemcitabine, 2′-Deoxy-2′,2′-difluorocytidine, reference compound] registered an IC50 (Homo sapiens, 72 h) of 7.4 µM.
Compound “O,O′— Di (4-chloro)benzyl 2′-deoxy-2′,2′-difluoro-5′-cytidylate [Compound (2)]” showed an IC50 of 18 µM.
Same read-out and setting: with “O,O′— Di(4-bromo)benzyl 2′-deoxy-2′,2′-difluoro-5′-cytidylate [Compound (3)]” the figure was 21.8 µM.
On the same count and under the same terms, as for “O,′-Di (4-fluoro)benzyl 2′-deoxy-2′,2′-difluoro-5′-cytidylate [Compound (1)]”, the figure is 9.8 µM.
